Each structure is given as a SMILES string.

For one series, the system named is Bacillus anthracis. Conditions: in vivo.
Series [1] deals with rats expressing pathologically excessive levels of MMPs. Conditions: rat, in vivo; cited from earlier work.
The test system of a further series is cell and tissue culture. Conditions: cited from earlier work.
A further series deals with bovine serum albumin (Bos taurus, UniProt P02769). Conditions: cited from earlier work.
In another series the test system is humans. Conditions: in vivo; cited from earlier work.

Chain of bovine serum albumin (P02769 25-607): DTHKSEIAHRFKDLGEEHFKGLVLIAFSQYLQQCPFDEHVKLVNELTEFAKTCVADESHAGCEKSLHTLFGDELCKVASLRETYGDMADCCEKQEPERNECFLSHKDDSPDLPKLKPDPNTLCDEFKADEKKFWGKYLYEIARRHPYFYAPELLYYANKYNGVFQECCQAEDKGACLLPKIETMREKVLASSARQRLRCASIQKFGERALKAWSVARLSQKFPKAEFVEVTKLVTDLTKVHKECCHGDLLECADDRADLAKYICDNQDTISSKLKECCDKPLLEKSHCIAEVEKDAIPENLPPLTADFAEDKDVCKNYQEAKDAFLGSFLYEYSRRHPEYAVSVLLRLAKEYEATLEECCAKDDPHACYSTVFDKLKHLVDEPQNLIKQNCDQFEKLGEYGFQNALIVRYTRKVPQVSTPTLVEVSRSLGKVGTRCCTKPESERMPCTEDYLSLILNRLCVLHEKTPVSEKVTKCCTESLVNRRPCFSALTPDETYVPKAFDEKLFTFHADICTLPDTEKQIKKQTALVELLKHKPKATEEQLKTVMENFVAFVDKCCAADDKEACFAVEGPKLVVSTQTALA

With `O=C(/C=C/c1ccc(O)cc1)C(C(=O)/C=C/c1ccc(O)cc1)C(=O)Nc1ccccc1` [CMC2.24], the “treatment of subject infected with Bacillus anthracis” value in the series on Bacillus anthracis is recorded as “effective to treat the subject”. In series [1], the “toxicity after oral gavage” value was “no evidence of toxicity”. In addition, the “toxicity compared to the parent compound curcumin” value in the series with cell and tissue culture is listed as “even less toxicity”. The “binding to bovine serum albumin” value at bovine serum albumin was “bind fairly strongly”.
Consider `COc1cc(/C=C/C(=O)CC(=O)/C=C/c2ccc(O)c(OC)c2)ccc1O` [curcumin, reference compound], for which, in the series with humans, the toxicity in humans entry is on record as “virtually no toxicity”. For the same compound, the “toxicity after oral gavage” value in series [1] was “no evidence of toxicity”. On bovine serum albumin, the “binding to bovine serum albumin” value is listed as “bind fairly strongly”.

Source of the values: patent publication US20150073021A1 (priority 2013, published 2015).
